Data published in the supplement of paper PMC10307832.

Legend:
Experiment in all cases: relative viability (nuclei count vs DMSO), 5 days (fraction); higher = more cells survive
201T = test system: 201T
Method in brief: (§1)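 Nuclei were stained with Hoechst during a one-step fixation (final 0.05% Triton X-100, 1% formaldehyde, 1 ug/ml Hoechst) carried out 5 days after dosing, then counted on 4× images. The cells, lung cancer lines in 1536-well plates, had been dosed by pin tool the day after seeding with one drug alone or a fixed anchor-drug dose plus five library-drug doses (not always all listed) in √10 steps. Relative viability is the nuclei count in treated wells divided by that in vehicle wells, and each value is the median of duplicate plates.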

ABC-1 = test system: ABC-1
Method in brief: as §1

BEN = test system: BEN
Method in brief: as §1

CAL-12T = test system: CAL-12T
Method in brief: as §1

COR-L 105 = test system: COR-L 105
Method in brief: as §1

COR-L23 = test system: COR-L23
Method in brief: as §1

EKVX = test system: EKVX
Method in brief: as §1

HARA = test system: HARA
Method in brief: as §1

HCC-366 = test system: HCC-366
Method in brief: as §1

LK-2 = test system: LK-2
Method in brief: as §1

LU99A = test system: LU99A
Method in brief: as §1

NCI-H1437 = test system: NCI-H1437
Method in brief: as §1

NCI-H1650 = test system: NCI-H1650
Method in brief: as §1

NCI-H1666 = test system: NCI-H1666
Method in brief: as §1

NCI-H2009 = test system: NCI-H2009
Method in brief: as §1

NCI-H2170 = test system: NCI-H2170
Method in brief: as §1

NCI-H3122 = test system: NCI-H3122
Method in brief: as §1

NCI-H441 = test system: NCI-H441
Method in brief: as §1

NCI-H661 = test system: NCI-H661
Method in brief: as §1

NCI-H727 = test system: NCI-H727
Method in brief: as §1

NCI-H838 = test system: NCI-H838
Method in brief: as §1

PC-14 = test system: PC-14
Method in brief: as §1

SW 900 = test system: SW 900
Method in brief: as §1

Q: How did the relative viability (201T; first compound 0.08 µM) turn out when `Oc1nc(-c2ccc(C(F)(F)F)cc2)nc2c1CSCC2` [XAV939] + Cc1cc(Nc2cc(N3CCN(C)CC3)nc(Sc3ccc(NC(=O)C4CC4)cc3)n2)n[nH]1 [Tozasertib] (partner 0.1 µM) was run?
A: 0.99

Q: And the relative viability (201T; first compound 0.253 µM)?
A: 0.763

Q: What about the relative viability (201T; first compound 0.8 µM) of the same molecule?
A: 0.812

Q: And the relative viability (201T; first compound 2.53 µM)?
A: 0.755

Q: And the relative viability (ABC-1; first compound 0.08 µM)?
A: 0.126

Q: What about the relative viability (ABC-1; first compound 0.253 µM) of the same molecule?
A: 0.169

Q: And the relative viability (ABC-1; first compound 0.8 µM)?
A: 0.166

Q: What about the relative viability (ABC-1; first compound 2.53 µM) of the same molecule?
A: 0.165

Q: And the relative viability (BEN; first compound 0.08 µM)?
A: 0.579

Q: And the relative viability (BEN; first compound 0.253 µM)?
A: 0.451

Q: And the relative viability (BEN; first compound 0.8 µM)?
A: 0.542

Q: What about the relative viability (BEN; first compound 2.53 µM) of the same molecule?
A: 0.444

Q: And the relative viability (CAL-12T; first compound 0.08 µM)?
A: 0.386

Q: What about the relative viability (CAL-12T; first compound 0.253 µM) of the same molecule?
A: 0.29

Q: And the relative viability (CAL-12T; first compound 0.8 µM)?
A: 0.222

Q: What about the relative viability (CAL-12T; first compound 2.53 µM) of the same molecule?
A: 0.196

Q: What about the relative viability (COR-L 105; first compound 0.08 µM) of the same molecule?
A: 0.358

Q: What about the relative viability (COR-L 105; first compound 0.253 µM) of the same molecule?
A: 0.374

Q: What about the relative viability (COR-L 105; first compound 0.8 µM) of the same molecule?
A: 0.349

Q: And the relative viability (COR-L 105; first compound 2.53 µM)?
A: 0.343

Q: What about the relative viability (COR-L23; first compound 0.08 µM) of the same molecule?
A: 0.194

Q: What about the relative viability (COR-L23; first compound 0.253 µM) of the same molecule?
A: 0.195

Q: What about the relative viability (COR-L23; first compound 0.8 µM) of the same molecule?
A: 0.225

Q: What about the relative viability (COR-L23; first compound 2.53 µM) of the same molecule?
A: 0.154

Q: And the relative viability (EKVX; first compound 0.08 µM)?
A: 0.47

Q: And the relative viability (EKVX; first compound 0.253 µM)?
A: 0.36

Q: And the relative viability (EKVX; first compound 0.8 µM)?
A: 0.372

Q: And the relative viability (EKVX; first compound 2.53 µM)?
A: 0.29

Q: What about the relative viability (HARA; first compound 0.08 µM) of the same molecule?
A: 0.107

Q: And the relative viability (HARA; first compound 0.253 µM)?
A: 0.0774

Q: What about the relative viability (HARA; first compound 0.8 µM) of the same molecule?
A: 0.102

Q: What about the relative viability (HARA; first compound 2.53 µM) of the same molecule?
A: 0.103

Q: What about the relative viability (HCC-366; first compound 0.08 µM) of the same molecule?
A: 0.163

Q: What about the relative viability (HCC-366; first compound 0.253 µM) of the same molecule?
A: 0.0951

Q: What about the relative viability (HCC-366; first compound 0.8 µM) of the same molecule?
A: 0.116

Q: What about the relative viability (HCC-366; first compound 2.53 µM) of the same molecule?
A: 0.0569

Q: And the relative viability (LK-2; first compound 0.08 µM)?
A: 0.185

Q: What about the relative viability (LK-2; first compound 0.253 µM) of the same molecule?
A: 0.171

Q: And the relative viability (LK-2; first compound 0.8 µM)?
A: 0.157

Q: And the relative viability (LK-2; first compound 2.53 µM)?
A: 0.172

Q: And the relative viability (LU99A; first compound 0.08 µM)?
A: 0.268

Q: And the relative viability (LU99A; first compound 0.253 µM)?
A: 0.261

Q: What about the relative viability (LU99A; first compound 0.8 µM) of the same molecule?
A: 0.237

Q: What about the relative viability (LU99A; first compound 2.53 µM) of the same molecule?
A: 0.284

Q: And the relative viability (NCI-H1437; first compound 0.08 µM)?
A: 0.419

Q: And the relative viability (NCI-H1437; first compound 0.253 µM)?
A: 0.335

Q: What about the relative viability (NCI-H1437; first compound 0.8 µM) of the same molecule?
A: 0.443

Q: And the relative viability (NCI-H1437; first compound 2.53 µM)?
A: 0.414

Q: And the relative viability (NCI-H1650; first compound 0.08 µM)?
A: 0.471

Q: And the relative viability (NCI-H1650; first compound 0.253 µM)?
A: 0.36

Q: What about the relative viability (NCI-H1650; first compound 0.8 µM) of the same molecule?
A: 0.406

Q: And the relative viability (NCI-H1650; first compound 2.53 µM)?
A: 0.332

Q: And the relative viability (NCI-H1666; first compound 0.08 µM)?
A: 0.576

Q: What about the relative viability (NCI-H1666; first compound 0.253 µM) of the same molecule?
A: 0.565

Q: What about the relative viability (NCI-H1666; first compound 0.8 µM) of the same molecule?
A: 0.599

Q: What about the relative viability (NCI-H1666; first compound 2.53 µM) of the same molecule?
A: 0.582

Q: And the relative viability (NCI-H2009; first compound 0.08 µM)?
A: 0.84

Q: And the relative viability (NCI-H2009; first compound 0.253 µM)?
A: 0.66

Q: What about the relative viability (NCI-H2009; first compound 0.8 µM) of the same molecule?
A: 0.713

Q: What about the relative viability (NCI-H2009; first compound 2.53 µM) of the same molecule?
A: 0.647

Q: What about the relative viability (NCI-H2170; first compound 0.08 µM) of the same molecule?
A: 0.763

Q: And the relative viability (NCI-H2170; first compound 0.253 µM)?
A: 0.606

Q: What about the relative viability (NCI-H2170; first compound 0.8 µM) of the same molecule?
A: 0.66

Q: And the relative viability (NCI-H2170; first compound 2.53 µM)?
A: 0.463

Q: What about the relative viability (NCI-H3122; first compound 0.08 µM) of the same molecule?
A: 0.569

Q: What about the relative viability (NCI-H3122; first compound 0.253 µM) of the same molecule?
A: 0.407

Q: What about the relative viability (NCI-H3122; first compound 0.8 µM) of the same molecule?
A: 0.389

Q: And the relative viability (NCI-H3122; first compound 2.53 µM)?
A: 0.337

Q: And the relative viability (NCI-H441; first compound 0.08 µM)?
A: 0.818

Q: What about the relative viability (NCI-H441; first compound 0.253 µM) of the same molecule?
A: 0.573

Q: What about the relative viability (NCI-H441; first compound 0.8 µM) of the same molecule?
A: 0.71

Q: And the relative viability (NCI-H441; first compound 2.53 µM)?
A: 0.601

Q: What about the relative viability (NCI-H661; first compound 0.08 µM) of the same molecule?
A: 0.364

Q: What about the relative viability (NCI-H661; first compound 0.253 µM) of the same molecule?
A: 0.346

Q: What about the relative viability (NCI-H661; first compound 0.8 µM) of the same molecule?
A: 0.365

Q: What about the relative viability (NCI-H661; first compound 2.53 µM) of the same molecule?
A: 0.339

Q: And the relative viability (NCI-H727; first compound 0.08 µM)?
A: 0.69

Q: And the relative viability (NCI-H727; first compound 0.253 µM)?
A: 0.543

Q: And the relative viability (NCI-H727; first compound 0.8 µM)?
A: 0.769

Q: What about the relative viability (NCI-H727; first compound 2.53 µM) of the same molecule?
A: 0.62

Q: What about the relative viability (NCI-H838; first compound 0.08 µM) of the same molecule?
A: 0.274

Q: And the relative viability (NCI-H838; first compound 0.253 µM)?
A: 0.259

Q: And the relative viability (NCI-H838; first compound 0.8 µM)?
A: 0.276

Q: What about the relative viability (NCI-H838; first compound 2.53 µM) of the same molecule?
A: 0.209

Q: What about the relative viability (PC-14; first compound 0.08 µM) of the same molecule?
A: 0.673

Q: What about the relative viability (PC-14; first compound 0.253 µM) of the same molecule?
A: 0.551

Q: What about the relative viability (PC-14; first compound 0.8 µM) of the same molecule?
A: 0.685

Q: What about the relative viability (PC-14; first compound 2.53 µM) of the same molecule?
A: 0.544

Q: What about the relative viability (SW 900; first compound 0.08 µM) of the same molecule?
A: 0.663

Q: And the relative viability (SW 900; first compound 0.253 µM)?
A: 0.549

Q: What about the relative viability (SW 900; first compound 0.8 µM) of the same molecule?
A: 0.535

Q: What about the relative viability (SW 900; first compound 2.53 µM) of the same molecule?
A: 0.323
